The values below are quoted from earlier work in US12478679B2, “Pharmaceutical carrier for active substances and a pharmaceutical composition containing said carrier” (BIOTTS S A, priority 2019, dated 2025).

For series [1] the following is noted: rats.
For series [2] the following is noted: mice.

Where two headings read alike, the source gives them in different places.

For `COc1cc(/C=C/C(=O)CC(=O)/C=C/c2ccc(O)c(OC)c2)ccc1O` [curcumin], the “ED50, average effective dose in the carrageenan test” value in series [1] was 48 mg/kg; in series [2] (first series), 100.2 mg/kg. Moreover, the median effective dose (ED50) in series [2] (series of turmeric extracts and curcumin alone) was 8.7 mg/kg.
